Assay results: patent publication EP1228063B1, “SUBSTITUTED PYRIDINES AND PYRIDAZINES WITH ANGIOGENESIS INHIBITING ACTIVITY” (BAYER CORPORATION, priority 1999, dated 2001)

How the values were obtained:
[1] = target: T1, NIH3T3 cells expressing the full length KDR receptor (Homo sapiens, UniProt P35968); experiment: Cell mechanistic assay - Inhibition of 3T3 KDR phosphorylation; assay type: cell-based; conditions: VEGF (30 ng / ml) stimulated KDR phosphorylation in NIH3T3 cells, 30 minutes preincubation
T1 construct: NIH3T3 cells expressing the full length KDR receptor; expressed in transfected cells; host or cells: NIH3T3 cells (G418 selection)
T1 sequence (P35968 20-1356): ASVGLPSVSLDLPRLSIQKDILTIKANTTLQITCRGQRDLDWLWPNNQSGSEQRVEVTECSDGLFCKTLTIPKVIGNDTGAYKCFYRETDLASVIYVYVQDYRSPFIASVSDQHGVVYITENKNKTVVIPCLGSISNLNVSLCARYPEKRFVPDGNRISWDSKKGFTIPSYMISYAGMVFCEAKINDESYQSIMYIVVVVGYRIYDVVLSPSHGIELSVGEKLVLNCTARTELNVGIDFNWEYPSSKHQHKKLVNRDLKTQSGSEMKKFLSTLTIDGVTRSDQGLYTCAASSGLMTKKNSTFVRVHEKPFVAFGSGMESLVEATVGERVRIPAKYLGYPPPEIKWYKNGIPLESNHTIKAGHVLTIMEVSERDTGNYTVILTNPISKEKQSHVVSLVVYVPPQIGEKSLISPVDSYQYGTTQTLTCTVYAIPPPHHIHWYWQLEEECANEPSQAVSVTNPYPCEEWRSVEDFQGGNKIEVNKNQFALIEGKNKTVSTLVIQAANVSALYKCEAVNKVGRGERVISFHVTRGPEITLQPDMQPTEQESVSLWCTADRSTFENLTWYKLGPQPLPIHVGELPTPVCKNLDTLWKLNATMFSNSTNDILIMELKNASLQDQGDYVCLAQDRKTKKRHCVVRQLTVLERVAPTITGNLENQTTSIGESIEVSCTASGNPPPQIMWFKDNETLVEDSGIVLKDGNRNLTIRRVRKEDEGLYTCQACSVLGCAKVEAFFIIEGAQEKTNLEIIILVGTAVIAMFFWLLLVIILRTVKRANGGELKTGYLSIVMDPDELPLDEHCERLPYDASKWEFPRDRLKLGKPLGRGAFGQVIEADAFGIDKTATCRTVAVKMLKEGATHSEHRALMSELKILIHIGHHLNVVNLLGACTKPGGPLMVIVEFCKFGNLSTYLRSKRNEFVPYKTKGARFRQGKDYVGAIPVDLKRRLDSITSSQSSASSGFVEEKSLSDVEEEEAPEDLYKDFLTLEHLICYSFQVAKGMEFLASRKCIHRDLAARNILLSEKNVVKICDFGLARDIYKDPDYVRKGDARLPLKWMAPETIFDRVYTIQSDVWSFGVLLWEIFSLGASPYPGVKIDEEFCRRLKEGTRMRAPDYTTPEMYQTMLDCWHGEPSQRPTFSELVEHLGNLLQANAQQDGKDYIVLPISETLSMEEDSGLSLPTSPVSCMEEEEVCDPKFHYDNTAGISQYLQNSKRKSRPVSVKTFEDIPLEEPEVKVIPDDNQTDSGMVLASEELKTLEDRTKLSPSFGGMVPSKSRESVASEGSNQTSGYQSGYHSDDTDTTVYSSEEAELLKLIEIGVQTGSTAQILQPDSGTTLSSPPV
Procedure: NIH3T3 cells expressing the full length KDR receptor were grown in DMEM (Life Technologies, Inc., Grand Island, NY) supplemented with 10% newborn calf serum, low glucose, 25 mM /L sodium pyruvate, pyridoxine hydrochloride and 0.2 mg/ ml of G418 (Life Technologies Inc., Grand Island, NY). The cells were maintained in collagen I-coated T75 flasks (Becton Dickinson Labware, Bedford, MA) in a humidified 5% CO2 atmosphere at 37°C.
Fifteen thousand cells were plated into each well of a collagen 1-coated 96-well plate in the DMEM growth medium. Six hours later, the cells were washed and the medium was replaced with DMEM without serum. After overnight culture to quiesce the cells, the medium was replaced by Dulbecco's phosphate-buffered saline (Life Technologies Inc., Grand Island, NY) with 0.1 % bovine albumin (Sigma Chemical Co., St Louis, MO). After adding various concentrations (0-300 nM) of test compounds to the cells in 1% final concentration of DMSO, the cells were incubated at room temperature for 30 minutes. The cells were then treated with VEGF (30 ng / ml) for 10 minutes at room temperature. Following VEGF stimulation, the buffer was removed and the cells were lysed by addition of 150 µl of extraction buffer (50 mM Tris, pH 7.8, supplemented with 10% glycerol, 50 mM BGP, 2 mM EDTA, 10 mM NaF, 0.5 mM NaVO4, and 0.3% TX-100) at 4°C for 30 minutes.
To assess receptor phosphorylation, 100 microliters of each cell lysate was added to the wells of an ELISA plate precoated with 300 ng of antibody C20 (Santa Cruz Biotechnology, Inc., Santa Cruz , CA). Following a 60-minute incubation, the plate was washed and bound KDR was probed for phosphotyrosine using an anti-phosphotyrosine mAb clone 4G10 (Upstate Biotechnology, Lake Placid, NY). The plate was washed and wells were incubated with anti-mouse IgG/HRP conjugate (Amersham International plc, Buckinghamshire, England) for 60 minutes. Wells were washed and phosphotyrosine was quantitated by addition of 100 µl per well of 3,3',5,5' tetramethylbenzidine (Kirkegaard and Perry, TMB Microwell 1 Component peroxidase substrate) solution. Color development was arrested by the addition of 100 µl 1% HCl based stop solution (Kirkegaard and Perry, TMB 1 Component Stop Solution).
Optical densities (OD) were determined spectrophotometrically at 450 nm in a 96-well plate reader (SpectraMax 250, Molecular Devices). Background (no VEGF added) OD values were subtracted from all ODs and percent inhibition was calculated according to the equation: % Inhibition = ((OD(VEGF control)-OD(with test compound)) × 100)/(OD(VEGF control)-OD(no VEGF added)) [formula]
IC50s were determined on some of the exemplary materials with a least squares analysis program using compound concentration versus percent inhibition. Compounds that have IC50 ≤ 20 nM in this assay include those of Examples 2, 6, 10, 11, 14, 23, 96, 101, 102, 103, 104, 105. Compounds that have IC50 values between 20 nM and 50 nM include those of examples 1, 4, 8, 9, 12, 13, 17, 24, 93, 98. Compounds that have IC50 values between 50 nM and 400 nM include those of examples 97, 99, and 100.

[2] = tested on: SK-MEL2 human tumor cells that were transfected with a plasmid containing the murine VEGF gene; experiment: Matrigel Angiogenesis Model (hemoglobin content of Matrigel pellets); assay type: in vivo, Mice; conditions: vs. vehicle control animals, 12 days post-implantation
Procedure: Preparation of Matrigel Plugs and in vivo Phase: Matrigel® (Collaborative Biomedical Products, Bedford, MA) is a basement membrane extract from a murine tumor composed primarily of laminin, collagen IV and heparan sulfate proteoglycan. It is provided as a sterile liquid at 4° C, but rapidly forms a solid gel at 37° C.
Liquid Matrigel at 4° C was mixed with SK-MEL2 human tumor cells that were transfected with a plasmid containing the murine VEGF gene with a selectable marker. Tumor cells were grown in vitro under selection and cells were mixed with cold liquid Matrigel at a ratio of 2 X 10^6 per 0.5 ml. […]
Optical densities were determined spectrophotometrically at 600 nm in a 96-well plate reader, SpectraMax 250 Microplate Spectrophotometer System (Molecular Devices, Sunnyvale, CA). Background Lysis Buffer readings were subtracted from all wells.
Total sample hemoglobin content was calculated according to the following equation: Total Hemoglobin = (Sample Lysate Volume) × (Hemoglobin Concentration) [formula]
The average Total Hemoglobin of Matrigel samples without cells was subtracted from each Total Hemoglobin Matrigel sample with cells. Percent inhibition was calculated according to the following equation: % Inhibition = ((Average Total Hemoglobin Drug-Treated Tumor Lysates) × 100)/((Average Total Hemoglobin Non-Treated Tumor Lysates)) [formula] […]

SMILES: Clc1ccc(Nc2nnc(OCc3ccncc3)c3sccc23)cc1 [Example 8, 4-(4-chlorophenylamino)-7-(4-pyridylmethoxy)thieno-[2,3-d]pyridazine]
- IC50 [1]: 20 to 50 nM
- inhibition of total hemoglobin content of the Matrigel samples ([2]; 100 mg/kg po sid): > 60%
- inhibition of total hemoglobin content of the Matrigel samples ([2]; 300 mg/kg po sid): > 60%
